Test results from US4053632A, “Compounds of spiro-amine type and methods for their use” (priority 1971, dated 1977).
Values after ≈ are worked out from the molar mass of the structure shown. “Also recorded” adds a separate entry of the source. Where two headings read alike, the source gives them in different places.

Tests used:
[1] = system: methamphetamine induced hyperactivity; test: Antagonism of methamphetamine-induced hyperactivity; assay type: in vivo, mouse; conditions: mice, FIG. 1, in words
Protocol: Sedatives (e.g. barbiturates, benzodiazepines and propandiols) on the other hand generally potentiate the induced hyperactivity. The interaction with amphetamines consequently gives an indication of the mechanism of a drug. Male mice were pretreated with the test drug 30 minutes before the administration of methamphetamine 3 mg/kg i.p. After 20 minutes the spontaneous motor activity was measured for 20 minutes by an Animex activity meter, which can distinguish between slight and considerable motion. The animals were tested in groups of three and used only once. Control groups treated with saline alone or the test drug and saline according to the testing schedule were run simultaneously.

[2] = system: NA turnover / noradrenaline receptor; test: Estimation of NA receptor blockade (NA turnover) in the rat brain; assay type: in vivo; conditions: for minimal effective dose: ip, read-out: first significant dose, effect on brain noradrenaline level
Description: (§1) The estimation of catecholamine (CA) turnover was made by using the tyrosine hydroxylase inhibitor α-methyl tyrosine methyl ester (H 44/68) (4). This technique is based on the assumption that dopamine (DA) or noradrenaline (NA) receptor blockade will mediate an increase in CA turnover and result in lowered CA levels in the brain compared to H 44/68 alone. Since DA receptor blockade is assumed to be a biochemical correlate to antipsychotic action, this test gives a biochemical evidence for an antipsychotic effect. In this particular test the DA and NA levels in the brain were measured biochemically (5,6).

[3] = system: motor activity; test: Motor activity in mice; assay type: in vivo, mouse; conditions: for ED50: Mus musculus, 1 h
Protocol: The exploratory activity of mice was recorded in a locomotion cage in which the movements were counted each time the animals cross-circuits on electrical current in the bottom plate. […] The animals were tested individually. Groups of six mice were used and the mice were only used once. The activity was expressed in percent of the activity of control groups ran simultaneously.
Sedative activity was defined as suppression of normal motor activity. The motor activity in mice was automatically recorded in a locomotion cage in which the movements are counted each time the animal short-circuits an electrical current in the bottom plate. […] The animals were tested individually. Groups of six mice were used. The activity was expressed in percent of the activity of control groups run simultaneously.

[4] = system: pupil width (mydriasis); conditions: mouse, in vivo
Protocol: (§3) The compounds were given by intravenous route to 3 mice. […] Seizures, gait, sedation and grip strength were recorded.
(§4) Acute toxicity was tested by the intraveneous, intraperitoneal and oral routes of administration. […] During the oral route a behavioral scoring system was used in order to relate changes in behavior to dose. The LD50 values were determined graphically from log dose -- response curves based on four doses with three animals per dose. Peripheral parasympatholytic effect was tested in mice by observing the mydriatic effect after intravenous injection (9) (four doses with three animals per dose). PD200 refers to the dose which increases the pupil width by 200%.

[5] = system: mice; test: Behavioral observation (ptosis, catatonia) in mice; assay type: in vivo, mouse
[6] = system: uptake of noradrenaline (cortex slices); test: Inhibition of the uptake of tritiated noradrenaline in vivo; conditions: ip, read-out: Inhibition (50 %) of uptake in vivo, NA
Protocol: The animals were killed half or one hour after the administration of the drugs in vivo (i.p.). The slices, made from cortex, were preincubated for five minutes and incubated with 0.1 μmole per ml of ^3 H-noradrenaline for further five minutes. The incubation mixture consisted of 0.2 μmole of ^3 H-NA and the brain slices in 2 ml of Krebs-Henseleits buffer, pH 7.4. The radioactive ^3 H-NA taken up in the slices was extracted with ethanol and the amount was determined by liquid scintillation. The dose producing 50 per cent decrease of the active uptake (ED50) was determined graphically from dose response curves. At least four animals were used at each dose level.

[7] = system: conditioned avoidance response (CAR); test: Conditioned avoidance response in rats; assay type: in vivo, rat; conditions: for ED50: Rattus norvegicus, ip, 1 h, i.p.
Protocol: For this reason the conditioned avoidance test has been developed for initial screening of neuroleptics. Rats were trained to avoid electrical shock by jumping from one compartment to the other in a shuttle box. The conditioned stimulus consists of an auditory signal which after eight seconds was followed by the electrical shock. The rates were trained to a criterion of making eight out of ten responses correctly. The drugs were injected one hour before the test. The avoidance responses are expressed in percentage of those before administration. CD50 is the dose which reduces the avoidance response to 50% of control values.

[8] = system: DA turnover / dopamine receptor; test: Estimation of DA receptor blockade (DA turnover) in the rat brain; assay type: in vivo; conditions: for effect on DA turnover: in words; for minimal effective dose: ip, read-out: first significant dose, effect on brain dopamine level
Description: as §1

[9] = system: uptake of 5-HT (midbrain slices); test: Inhibition of the uptake of tritiated 5-HT in vivo; design: species or system mouse; conditions: Mus musculus, ip, 0.5 h; i.p., in vivo; read-out: Inhibition (50 %) of uptake in vivo, 5-HT
Protocol: The drugs were administered intraperitoneally half an hour before the animals were killed and the midbrain was taken out and sliced and incubated in a mixture consisting of, per 100 mg of brain slices, 0.2 μmole of ^3 H-5-HT and 1 μmole of glucose in 2 ml of Krebs-Henseleit buffer, pH 7.4. The incubation time was 5 minutes with 5 minutes of preincubation before ^3 H-5-HT was added. The radioactive ^3 H-5-HT taken up in the slices was extracted with ethanol and the amount was determined by liquid scintillation. The dose producing 50 per cent decrease of the active uptake (ED50) was determined graphically from dose response curves. Active uptake is defined as that part of the radioactive uptake which is inhibited by a high concentration of cocaine. All doses were given at least to four animals.

[10] = in vivo; conditions: mouse
Protocol: as §3, §4

[11] = system: uptake of noradrenaline (cortex slices); test: Inhibition of the uptake of tritiated noradrenaline in vitro (brain slices); assay type: biochemical; conditions: dl-noradrenaline 10^-7 M
[12] = system: uptake of 5-HT (midbrain slices); test: Inhibition of the uptake of tritiated 5-HT in vitro (brain slices); assay type: biochemical, mouse
[13] = system: catalepsy; test: Catalepsy; assay type: in vivo; conditions: rat
Description: (§2) Using the method and intensity scaring system described by Costall and Naylar, (7), the cataleptic properties of SIR 109 and chloropromazine were studied. Briefly, an animal was classed as cataleptic if it remained in an abnormal position for 15 seconds. Additionally, the duration the animal held this position was converted to a numerical scare as an indication of the intensity of the catalepsy.

[14] = Catalepsy; assay type: in vivo
Description: as §2

[15] = system: mice; test: Acute toxicity in mice; conditions: in words
Protocol: as §3, §4

[16] = system: aggressive behavior; test: Aggressive behavior (anti-aggressive test) in isolated mice; assay type: in vivo, mouse; conditions: for ED50: Mus musculus, ip, 1 h, read-out: Anti-aggresive test ED50; for effect on aggressive behavior: in words
Protocol: Anxiolytic effect was defined as a block of aggressive behavior in mice. Male mice kept isolated for 3 weeks or longer develop an aggressive behaviour when caged together. The method used followed that reported by Valzelli et al. (8) with the exception that two mice were tested together. The aggressiveness was scored during a five minute test according to the following scale:
0: the animals show no interest in each other except occasional nosing,
[…]: frequent vigorous nosing and tail twitching. The animals assume a fighting position and occasionally attack the partner -- no more than 3-4 times in the period of five minutes,
50: tail twitching, powerful attacks -- no more than 10 times during the test period,
75: the animals pursue their partners, attacking and biting for most of the time,
100: attacks over the entire period.
Controls administered with the solvent were tested. […] The animals were used for several experiments but with intervals of at least one week. Groups of 10 mice were used, and they were tested one hour after the administration of the drug. The animals were used as their own controls.

[17] = Solubility in water; assay type: physicochemical; conditions: hydrochloride
[18] = system: conditioned avoidance response (CAR); conditions: general knowledge, in words; cited from earlier work
[19] = rat, after H 44/68 250 mg/kg i.p.

Q: What does the source list for `CN(C)C1C=CC2(CC1)c1ccccc1CCc1ccc(Cl)cc12` (racemic) [SIR 109, 3'-chloro-10', 11'-dihydro-4-(dimethylamino)spiro[2-cyclohexene-1,5'(5'H)-dibenzo[a,d]cycloheptene]]?
A: block of methamphetamine induced hyperactivity [1]: blocked methamphetamine induced hyperactivity in mice; also recorded: about as potent as chlorpromazine; effect on NA turnover / selectivity versus DA turnover ([2]; in words): seems to be more selective than chlorpromazine since it influences NA turnover first at higher doses; also recorded: more selective compound than chlorpromazine since it affects NA turnover first at higher doses; minimal effective dose [2, 19]: 10 to 15 mg/kg; ED50 ([3]; mice, read-out: Motor activity ID50): 5 mg/kg; ED50 ([3]; ip, i.p., mice, read-out: Motor activity ID50 (Table 4)): 5 mg/kg; sedation / tranquilizing effect ([3]; in words): tranquilizing effect of the compound; also recorded: strongly sedative or tranquilizing; sedation (motor activity) versus CPZ ([3]; mice, in words): caused sedation in the mice at about the same dose as CPZ; also recorded: about as potent as chlorpromazine; peripheral (parasympatholytic) effects [4]: weak peripheral effects; PD200 (Table 4) ([4]; iv, 10 min): > 40 mg/kg; threshold dose for ptosis ([5]; mouse, in vivo): 31 mg/kg; catatonic state ([5]; mouse, in vivo, po): did not cause any catatonic state; ED50 [6]: 40 mg/kg; ED50 ([7]; rat, read-out: CAR CD50): 7.5 to 10 mg/kg; ED50 ([7]; read-out: CAR ED50 (Table 4)): 7.5 to 10 mg/kg; effect on conditioned avoidance response ([7]; rat, in words): somewhat less active than chlorpromazine; also recorded: about as potent as chlorpromazine; effect on DA turnover [8]: effects DA turnover at about the same dose; also recorded: about as potent as chlorpromazine; minimal effective dose [8, 19]: 5 mg/kg; ED50 [9]: > 40 mg/kg; LD50 at 24 h ([10]; ip): 185 mg/kg; LD50 at 24 h ([10]; iv): 40 mg/kg; LD50 at 24 h ([10]; po): 250 mg/kg; Inhibition (50 %) of uptake in vitro, NA [11]: 1.5 µg/mL; Inhibition (50 %) of uptake in vitro, 5-HT [12]: 1.3 µg/mL; Catalepsy intensity score [13]: 0.75; cataleptic effect ([13]; in words): weak cataleptic effect in the rat; also recorded: intensity of catalepsy was considerably lower after SIR 109 compared to CPZ; also recorded: low cataleptic action; ED50 ([14]; in vivo, ip, rat): 25 mg/kg; acute toxicity versus CPZ [15]: considerably less toxic than CPZ both after i.v., i.p. and oral administration in the mice; also recorded: considerably less toxic after acute administration; ED50 ([16]; i.p., mice): 0.27 mg/kg; effect on aggressive behavior ([16]; mice): potent at a dose which does not cause sedation; also recorded: strong effect of SIR 109 on aggressive behavior at non-sedative doses

Q: Which solubility [17] does the source give for `CNC1C=CC2(CC1)c1ccccc1C=Cc1ccccc12` (stereo not drawn) [Example 12] here?
A: Its solubility is ~10000 µg/mL (≈ 34.8 mM).

Q: Which “block of methamphetamine induced hyperactivity” value [1] does the source give for `CN(C)CCCN1c2ccccc2Sc2ccc(Cl)cc21` [Chlorpromazine, reference compound] here?
A: The value was “blocked methamphetamine induced hyperactivity in mice”.

Q: And the minimal effective dose ([2]; Rattus norvegicus)?
A: Its minimal effective dose is 5 mg/kg.

Q: What about the “inhibition of learned responses” value [18] of the same molecule?
A: The value was “inhibit many different types of learned responses”.

Q: And the “threshold dose for ptosis” value ([5]; mice)?
A: The value was 4 mg/kg.

Q: And the “dose from which catatonic state was prominent” value ([5]; orally, mouse)?
A: Its value is ≥ 31 mg/kg.

Q: And the ED50 ([7]; read-out: CAR ED50 (Table 4))?
A: The ED50 was 5 mg/kg.

Q: And the minimal effective dose ([8]; Rattus norvegicus)?
A: Its minimal effective dose is 5 mg/kg.

Q: And the “effect on DA turnover” value [8]?
A: Its value is “effects DA turnover at about the same dose”.

Q: What about the LD50 at 24 h ([10]; ip) of the same molecule?
A: Its LD50 at 24 h is 92 mg/kg.

Q: And the LD50 at 24 h ([10]; iv)?
A: Its LD50 at 24 h is 26 mg/kg.

Q: And the LD50 at 24 h ([10]; po)?
A: The LD50 at 24 h was 190 mg/kg.

Q: And the Catalepsy intensity score ([13]; in vivo)?
A: The Catalepsy intensity score was 1.0.

Q: What about the ED50 ([14]; rat, in vivo, ip) of the same molecule?
A: Its ED50 is 7 mg/kg.

Q: What about the ED50 [16] of the same molecule?
A: Its ED50 is 2 mg/kg.

Q: What about the “effect on aggressive behavior” value ([16]; mice) of the same molecule?
A: The value was “effective first at sedative doses”.
